Tests used:
Format in all cases: physicochemical
[1] = pH-dependent xanthommatin solubility in water; conditions: solid pigment suspended in acidic to alkaline water (pH 2-12), agitation, then centrifugation
Experimental: Evaluation of pH-dependent xanthommatin solubility: Fractions of solid xanthommatin corresponding to 1 mg of starting material were dispersed in 1 mL of filtered water adjusted to pH 2.01, 4.00, 6.00, 7.00, 8.01, 10.01, or 12.00. Samples were mixed by pipetting, centrifuged at 15,000 g for 5 minutes, and imaged with a camera to record the mass of undissolved material (FIG. 1C, top panel). Each sample was then diluted to 1.5 mL with water adjusted to its respective pH, mixed by vortexing, sonicated for 5 minutes, centrifuged at 15,000 g for 5 minutes, and imaged again (FIG. 1C, bottom panel).

[2] = solubility of xanthommatin in carrier liquids (water, MES buffer); conditions: oxidized xanthommatin
[3] = xanthommatin solubility in water-based polyurethane; conditions: pigment added as suspension in water or solution in MES buffer; Rust-Oleum 6711; judged by absence of solid after centrifugation
Experimental: Evaluation of xanthommatin solubility in water-based polyurethane: Two quantities of solid xanthommatin, corresponding to either 0.2 or 1.6 mg of xanthommatin, were dissolved or dispersed in 0.3 mL of MES buffer (0.1 M, pH 5.5) or deionized water, and added to 0.27 g fractions of water-based polyurethane paint (Rust-Oleum 6711). Pigment-free samples were prepared as controls. After mixing, these samples were centrifuged (15,000 g, 5 minutes), and imaged using a camera (FIG. 1D).

- solubility in water, acidic conditions ([1]; acidic conditions): sparingly soluble/insoluble
- solubility in water, basic conditions ([1]; basic conditions): most soluble
- solubility in MES buffer (carrier liquid) ([2]; MES buffer): fully soluble
- solubility in water (carrier liquid) ([2]; water): only slightly soluble
- solubility in water-based polyurethane paint base [3]: fully soluble
SMILES: NC(CC(=O)c1cccc2oc3cc(=O)c4[nH]c(C(=O)O)cc(=O)c4c-3nc12)C(=O)O (centres unmarked) [xanthommatin, 11-(3-amino-3-carboxypropanoyl)-1,5-dioxo-4H-pyrido[3,2-a]phenoxazine-3-carboxylic acid]

Reference: patent US20250320362A1, “Suspensions and Solutions of Dyes For Colored Coatings” (Northeastern University, priority 2022, published 2025)
